Drawing on patent US10112918B2, “15-oxospiramilactone derivatives, preparation method and uses thereof” (Kunming Institute of Botany, The Chinese Academy of Sciences, priority 2013, dated 2018), this text covers IC50 for 16 molecules.

What is called IC50 is the concentration that gives 50% inhibition.

Type in all cases: cell-based
Assay [1] concerns MCF-7 (human breast cancer cells). Description: MTT inhibition of tumor cell growth, MCF-7. The settings on record: Homo sapiens, MCF7, 48 h, Table 1, 7-hydroxy derivatives of S-3. As to the method: (§1) 1. Inoculating cells: the culture medium DMEM or RMPI1640 containing 10% fetal bovine serum was used to prepare a single cell suspension, and the cell suspension was inoculated to a 96-well plate at 5000-10000 cells per well (100 μl for each well); Adherent cells were inoculated and cultured for 12 h in advance. HL-60 (human promyelocytic leukemia cells), SMMC-7721 (human hepatoma cells), A-549 (Human lung adenocarcinoma cells), MCF-7 (human breast cancer cells), SW-480 (human colon cancer cells) were purchased from the Cell Bank of the Chinese Academy of Sciences, Shanghai.
(§2) 2. The solution of the compound to be tested (40 μM for primary screening; 5 concentrations were set for gradient re-screening for the compounds which achieve about 50% inhibition of tumor cell growth at 40 μM) was added, the final volume of each well was 200 μl, and triplicate wells were set for each test.
(§3) 3. Coloration: After culturing at 37° C. for 48 h, MTT solution (20 μl) was added to each well. After incubation for another 4 h, the culture was stopped. The supernatant in each well was pipetted and discarded, and 200 μl SDS solution (10%) was added to each well. Incubation was performed overnight (at 37° C.), to completely dissolve the crystal.
(§4) 4. Colorimetric assay: ELISA Reader (Bio-Rad 680) was used to obtain the light absorption for each well at a wavelength of 595 nm, the results were recorded. A cell growth curve was plotted with the concentration as abscissa and the cell survival percentage as ordinate. The two-point method (Reed and Muench method) was used to calculate the IC50 of the compound.

Assay [2] relates to A-549 (Human lung adenocarcinoma cells). Put plainly: MTT inhibition of tumor cell growth, A-549. The settings on record: Homo sapiens, A549, 48 h, Table 1, 7-hydroxy derivatives of S-3. As to the method:
as §1, §2, §3, §4

Assay [3] concerns HL-60 (human promyelocytic leukemia cells). Put plainly: MTT inhibition of tumor cell growth, HL-60. Conditions: Homo sapiens, HL-60, 48 h, Table 1, 7-hydroxy derivatives of S-3. The method, then:
as §1, §2, §3, §4

The test system of assay [4] is SMMC-7721 (human hepatoma cells). Description: MTT inhibition of tumor cell growth, SMMC-7721. The settings on record: Homo sapiens, SMMC-7721, 48 h, Table 1, 7-hydroxy derivatives of S-3. The method, then: as §1, §2, §3, §4
The subject of assay [5] is SW-480 (human colon cancer cells). Put plainly: MTT inhibition of tumor cell growth, SW-480. Conditions: Homo sapiens, SW480, 48 h, Table 1, 7-hydroxy derivatives of S-3, read-out: IC50 SW-480. As to the method: as §1, §2, §3, §4
Assay [6] concerns Wnt signaling pathway (Top-Flash reporter gene). Description: Top-Flash Wnt reporter gene assay in HEK293T cells with Wnt3a conditioned medium. Conditions: Homo sapiens, HEK-293T, 6 h, 6 h. The method, then:
HEK293T cells were cultured in DMEM containing 10% fetal bovine serum (Invitrogen) at 37° C., 5% CO2. The cells were passaged every other day. The density was retained at 70˜80% during passage. L cell line (CRL-2647, purchased from the gene bank of ATCC, the US) and the control cell line (CRL-2648, purchased from ATCC, US), which stably secreted mouse Wnt3a protein, were cultured in DMEM containing 50 ug/ml G418 and 10% fetal bovine serum, at 37° C., 5% CO2. When the cells grew to a density of about 70%, the medium was replaced with DMEM containing 10% fetal bovine serum. After continuous culture for 4 days, the culture was collected and centrifuged, and the supernatant was kept so that the Wnt conditioned medium was obtained. After titration assay, the conditioned medium was quick-frozen in liquid nitrogen, and placed at −80° C. for long-term storage, so that the titer was kept unchanged.
The cells were seeded to a 48-well plate at a density of […] cells per well, and transfected 20 h later. The reagents for plasmid transfection were calculated based on the amount in each well of the 48-well plate as following: the total amount of plasmid was 125 ng/well; the plasmid was first added to a serum-free medium (25 μL/well) and mixed well; PLUS reagent (Invitrogen) was then added in an amount of 0.5 μL/well and mixed well, then stood for 15 min; Lipofectamine (Invitrogen) liposome was added in an amount of 0.5 μL/well to serum-free DMEM medium (25 μL/well), and then mixed with the solution containing the plasmid and the PLUS, and stood for 15 min. The cells were cultured in serum-free DMEM medium (100 μL/well), and the final mixture of plasmid, PLUS and Lipofectamine were added to the cells. After incubation for 3 h, the transfection was stopped by the medium containing 10% fetal bovine serum (200 μL/well).
The HEK293T cells used for activity assay of the report gene were transfected by the method as shown in 2). Activity assay of Wnt reporter gene: the amount of plasmid for transfection was 5 ng/well for TOP-flash and 5 ng/well for GFP plasmid as internal standard, with lacZ added to reach a total amount of 125 ng/well. […] After treating for 6 h, Boehringer Mannheim Luci-ferase Assay Kit was used to lyse cells (200 μL/well). 50 μL from each well was pipetted into a 96-well plate. The indensity of GFP protein in the cell lysate was measured by fluorimeter FL600 (BIO-TEK Inc. Winooski, Vt.), and taken as internal standard for cell transfection efficiency. 10 μL substrate of luciferase was then added to each well, and the activity of luciferase was measured by Micro Lumate Plus (Perkin Elmer Inc. Wellesley, Mass.) luminometer. Finally, GFP indensity was used as internal standard to calibrate the activity of luciferase, i.e. the activity of Wnt reporter gene.
Calculation of IC50 (taking the calculation of IC50 of the Wnt signaling pathway for example): background (the activity as measured in the groups treated with a conditioned medium containing DMSO only) was subtracted from the reporter gene activity as measured in the groups treated by Wnt3a conditioned medium with or without the compound to be tested at different concentrations; and the obtained value was defined as the activity of the reporter gene induced by Wnt or the residual activity of the reporter gene after adding the compound to be tested. The residual activity was normalized by the activity induced by Wnt to get the relative residual activity. Then combine with the concentrations of the compound to be tested to plot a linear graph, and a dose-effect curve was fitted based on 4-parameter logistic fit. IC50 of the Wnt signaling pathway is determined as the concentration at which the relative residual activity is 0.5.
In general terms: A reporter such as luciferase makes a cellular process visible.

Setting [7] is: Table 7 (second), derivatives modified on 7-hydroxyl of S-3, HEK293T, Wnt3a conditioned medium, read-out: IC50 (μM), inhibitory activity on the Wnt signaling pathway.

Molecules are shown by their SMILES. Where two headings read alike, the source gives them in different places.

For the molecule `C=C1C(=O)[C@]23CC[C@H]1CC2[C@@]12CCC[C@@](C)(COC1=O)C2C[C@H]3OC=O` (some centres unmarked) [Compound 1a], the IC50 in assay [1] was 2740 nM; in assay [2], 2180 nM; in assay [3], 2.39 µM; in assay [4] it was 1.67 µM; in assay [5] it was 1960 nM; in assay [6] (setting [7]), 18.3 ± 0.66 µM.

`C=C1C(=O)[C@]23CC[C@H]1CC2[C@@]12CCC[C@@](C)(COC1=O)C2C[C@H]3OC(C)=O` (some centres unmarked) [Compound 1b]: the IC50 amounted to 3480 nM in assay [1]; 2830 nM in assay [2]; 1.46 µM in assay [3]; 3.6 µM in assay [4]; 3440 nM in assay [5]; 14.2 ± 0.67 µM in assay [6] (setting [7]).

As to `C=C1C(=O)[C@]23CC[C@H]1CC2[C@@]12CCC[C@@](C)(COC1=O)C2C[C@H]3OC(=O)CCl` (some centres unmarked) [Compound 1c], the IC50 in assay [1] turned out to be 3670 nM; in assay [2], 640 nM; in assay [3], 1.13 µM; in assay [4], 0.78 µM; in assay [5], 2860 nM; in assay [6] (setting [7]), 17.9 ± 0.98 µM.

With `C=C1C(=O)[C@]23CC[C@H]1CC2[C@@]12CCC[C@@](C)(COC1=O)C2C[C@H]3OC(=O)CBr` (some centres unmarked) [Compound 1d], the IC50 in assay [1] came to 3470 nM; in assay [2] it was 500 nM; in assay [3] it was 1.05 µM; in assay [4] it was 1.23 µM; in assay [5] it was 3000 nM; in assay [6] (setting [7]), 28.8 ± 0.56 µM.

Turning to `C=C1C(=O)C23CC[C@H]1CC2[C@@]12CCC[C@@](C)(COC1=O)C2C[C@H]3OC(=O)CN=[N+]=[N-]` (some centres unmarked) [Compound 1e], the IC50 in assay [1] is 2740 nM; in assay [2] it was 2960 nM; in assay [3] it was 4.44 µM; in assay [4] it was 4.1 µM; in assay [5], 2370 nM; in assay [6] (setting [7]) it was 22.14 ± 0.1 µM.

With `C=C1C(=O)C23CC[C@H]1CC2[C@@]12CCC[C@@](C)(COC1=O)C2C[C@H]3OC(=O)C(F)(F)F` (some centres unmarked) [Compound 1f], the IC50 came out at 2740 nM in assay [1]; 6080 nM in assay [2]; 5.72 µM in assay [3]; 13 µM in assay [4]; 7810 nM in assay [5]; 20.2 ± 2.59 µM in assay [6] (setting [7]).

For `C=CC(=O)O[C@@H]1CC2[C@@]3(C)CCC[C@@]2(C(=O)OC3)C2C[C@@H]3CCC21C(=O)C3=C` (some centres unmarked) [Compound 1g], the IC50 was 5850 nM in assay [1]; 5970 nM in assay [2]; 6.86 µM in assay [3]; 10.2 µM in assay [4]; 6420 nM in assay [5]; 30 ± 2.22 µM in assay [6] (setting [7]).

For `C=C1C(=O)C23CC[C@H]1CC2[C@@]12CCC[C@@](C)(COC1=O)C2C[C@H]3OC(=O)CCCl` (some centres unmarked) [Compound 1h], the IC50 worked out at 2700 nM in assay [1]; 2610 nM in assay [2]; 4.59 µM in assay [3]; 3.5 µM in assay [4]; 3380 nM in assay [5]; 20.2 ± 0.99 µM in assay [6] (setting [7]).

Take `C=C1C(=O)C23CC[C@H]1CC2[C@@]12CCC[C@@](C)(COC1=O)C2C[C@H]3OC(=O)[C@@H](C)Cl` (some centres unmarked) [Compound 1i]: the IC50 in assay [1] is 2580 nM; in assay [2], 2590 nM; in assay [3] it was 3.37 µM; in assay [4], 3.35 µM; in assay [5], 2500 nM; in assay [6] (setting [7]) it was 28.3 ± 2.76 µM.

As for `C=C1C(=O)C23CC[C@H]1CC2[C@@]12CCC[C@@](C)(COC1=O)C2C[C@H]3OC(=O)c1ccccc1` (some centres unmarked) [Compound 1j], the IC50 worked out at 3710 nM in assay [1]; 2970 nM in assay [2]; 2.99 µM in assay [3]; 0.74 µM in assay [4]; 3950 nM in assay [5]; 14.7 ± 0.18 µM in assay [6] (setting [7]).

Turning to `C=C1C(=O)C23CC[C@H]1CC2[C@@]12CCC[C@@](C)(COC1=O)C2C[C@H]3OC(=O)c1ccc([N+](=O)[O-])cc1` (some centres unmarked) [Compound 1k], the IC50 in assay [1] is 800 nM; in assay [2] it was 1050 nM; in assay [3] it was 0.86 µM; in assay [4], 2.89 µM; in assay [5], 690 nM; in assay [6] (setting [7]) it was 10.7 ± 0.39 µM.

As to `C=C1C(=O)C23CC[C@H]1CC2[C@@]12CCC[C@@](C)(COC1=O)C2C[C@H]3OC(=O)c1ccc(OC)cc1` (some centres unmarked) [Compound 1l], the IC50 in assay [1] came out at 3070 nM; in assay [2] it was 2460 nM; in assay [3] it was 4.2 µM; in assay [4] it was 3.6 µM; in assay [5], 2430 nM; in assay [6] (setting [7]), 18.6 ± 1.48 µM.

Regarding `C=C1C(=O)C23CC[C@H]1CC2[C@@]12CCC[C@@](C)(COC1=O)C2C[C@H]3OC(=O)c1ccc(C(F)(F)F)cc1` (some centres unmarked) [Compound 1m], the IC50 in assay [1] turned out to be 1970 nM; in assay [2] it was 1730 nM; in assay [3], 0.89 µM; in assay [4], 2.65 µM; in assay [5] it was 2190 nM; in assay [6] (setting [7]), 19 ± 1.61 µM.

For the molecule `C=C1C(=O)C23CC[C@H]1CC2[C@@]12CCC[C@@](C)(COC1=O)C2C[C@H]3OC(=O)c1ccco1` (some centres unmarked) [Compound 1n], the IC50 in assay [1] stood at 3110 nM; in assay [2], 2140 nM; in assay [3], 4.01 µM; in assay [4], 3.05 µM; in assay [5] it was 2220 nM; in assay [6] (setting [7]) it was 18.9 ± 2.48 µM.

With `C=C1C(=O)[C@@]23CC[C@@H](CC2[C@@]24CCC[C@@](C)(COC2)C14)C1(CO1)C3=O` (some centres unmarked) [Compound 29], the 50% inhibitory concentration (IC50) in assay [6] (Table 9, HEK293T, Wnt3a conditioned medium, read-out: IC50(μM), inhibitory activity on the Wnt signaling pathway) was > 60 µM.

As to `C=C1C(=O)C23CC[C@@H](CC2[C@@]24CCC[C@@](C)(COC2)C14)C(=C)[C@@H]3O` (some centres unmarked) [Compound 33], in assay [6] (read-out: IC50 (μM), inhibitory activity on the Wnt signaling pathway), the IC50 was 12.1 ± 1.25 µM.
